The NIST ThermoML archive (doi:10.1021/je0201323)
± gives the expanded uncertainty stated by the source.

Key:
[1] = for surface tension liquid-gas: Pendant drop shape; for mass density: 101.3 kPa, Liquid, vibrating tube
[2] = xn = mol fraction of the nth substance listed; details: x1 = 1; for mass density: 101.3 kPa, Liquid, vibrating tube; for surface tension liquid-gas: Pendant drop shape

Row | Compound | surface tension liquid-gas ([1]; 287.81 K) [mN/m] | surface tension liquid-gas ([1]; 297.82 K) [mN/m] | surface tension liquid-gas ([1]; 307.86 K) [mN/m] | surface tension liquid-gas ([1]; 317.86 K) [mN/m] | surface tension liquid-gas ([1]; 327.88 K) [mN/m] | mass density ([1]; 278.15 K) [kg/m3] | mass density ([1]; 283.15 K) [kg/m3] | mass density ([1]; 288.15 K) [kg/m3] | mass density ([1]; 293.15 K) [kg/m3] | mass density ([1]; 298.15 K) [kg/m3] | mass density ([1]; 303.15 K) [kg/m3] | mass density ([1]; 308.15 K) [kg/m3] | mass density ([1]; 313.15 K) [kg/m3] | mass density ([1]; 318.15 K) [kg/m3] | mass density ([1]; 323.15 K) [kg/m3] | mass density ([1]; 328.15 K) [kg/m3] | mass density ([1]; 333.15 K) [kg/m3] | surface tension liquid-gas ([1]; 337.88 K) [mN/m] | other results
1 | CC(C)=O [acetone] | 23.94 ± 0.27 | 22.78 ± 0.26 | 21.59 ± 0.25 | 20.33 ± 0.24 | 19.01 ± 0.23 |  |  |  |  |  |  |  |  |  |  |  |  |  | 
2 | CN(C)C=O [dimethylformamide] | 36.96 ± 0.38 | 35.83 ± 0.37 | 34.65 ± 0.36 | 33.37 ± 0.35 | 32.03 ± 0.34 | 963 ± 0.3 | 958.3 ± 0.3 | 953.7 ± 0.3 | 949.1 ± 0.3 | 944.5 ± 0.3 | 939.9 ± 0.3 | 935.4 ± 0.3 | 930.9 ± 0.3 | 926.3 ± 0.3 | 921.7 ± 0.3 | 917.9 ± 0.2 | 913.2 ± 0.2 |  | surface tension liquid-gas ([1]; 277.85 K): 38.16 ± 0.39 mN/m; surface tension liquid-gas ([1]; 327.89 K): 32.03 ± 0.34 mN/m
3 | Cc1ccccc1 [toluene] | 28.93 ± 0.31 | 27.76 ± 0.3 | 26.6 ± 0.29 | 25.46 ± 0.28 | 24.29 ± 0.27 | 880.3 ± 0.2 | 875.9 ± 0.2 | 871.4 ± 0.2 | 866.9 ± 0.2 | 862.4 ± 0.2 | 857.8 ± 0.2 | 853.2 ± 0.2 | 848.6 ± 0.2 | 843.9 ± 0.2 | 839.2 ± 0.2 | 834.5 ± 0.2 | 829.8 ± 0.2 | 23.22 ± 0.26 | surface tension liquid-gas ([1]; 277.85 K): 30.11 ± 0.32 mN/m; surface tension liquid-gas ([1]; 302.83 K): 27.17 ± 0.3 mN/m; surface tension liquid-gas ([1]; 312.87 K): 26.03 ± 0.29 mN/m
4 | CCCCCCC [heptane] | 20.7 ± 0.26 | 19.63 ± 0.25 | 18.68 ± 0.24 | 17.76 ± 0.24 | 16.68 ± 0.23 | 696.3 ± 0.4 | 692.2 ± 0.4 | 688 ± 0.4 | 683.8 ± 0.4 | 679.5 ± 0.4 | 675.2 ± 0.4 | 670.9 ± 0.4 | 666.5 ± 0.3 | 662.1 ± 0.3 | 657.7 ± 0.3 | 653.2 ± 0.3 | 648.7 ± 0.3 | 15.79 ± 0.22 | surface tension liquid-gas ([1]; 277.93 K): 21.73 ± 0.27 mN/m; surface tension liquid-gas ([1]; 282.83 K): 21.18 ± 0.26 mN/m; surface tension liquid-gas ([1]; 292.81 K): 20.17 ± 0.26 mN/m; surface tension liquid-gas ([1]; 302.83 K): 19.15 ± 0.25 mN/m; surface tension liquid-gas ([1]; 312.86 K): 18.17 ± 0.24 mN/m; surface tension liquid-gas ([1]; 322.86 K): 17.22 ± 0.23 mN/m; surface tension liquid-gas ([1]; 332.91 K): 16.21 ± 0.23 mN/m; surface tension liquid-gas ([1]; 342.92 K): 15.29 ± 0.22 mN/m
5 | Cc1ccccc1 [toluene] + CN(C)C=O |  |  |  |  |  |  |  |  |  |  |  |  |  |  |  |  |  |  | mass density ([2]; 278.15 K): 880.3 ± 0.2 kg/m3; mass density ([2]; 283.15 K): 875.9 ± 0.2 kg/m3; surface tension liquid-gas ([2]; 287.81 K): 28.93 ± 0.31 mN/m; mass density ([2]; 288.15 K): 871.4 ± 0.2 kg/m3; mass density ([2]; 293.15 K): 866.9 ± 0.2 kg/m3; surface tension liquid-gas ([2]; 297.82 K): 27.76 ± 0.3 mN/m; mass density ([2]; 298.15 K): 862.4 ± 0.2 kg/m3; mass density ([2]; 303.15 K): 857.8 ± 0.2 kg/m3; surface tension liquid-gas ([2]; 307.86 K): 26.6 ± 0.29 mN/m; mass density ([2]; 308.15 K): 853.2 ± 0.2 kg/m3; mass density ([2]; 313.15 K): 848.6 ± 0.2 kg/m3; surface tension liquid-gas ([2]; 317.86 K): 25.46 ± 0.28 mN/m; mass density ([2]; 318.15 K): 843.9 ± 0.2 kg/m3; mass density ([2]; 323.15 K): 839.2 ± 0.2 kg/m3; surface tension liquid-gas ([2]; 327.88 K): 24.29 ± 0.29 mN/m; mass density ([2]; 328.15 K): 834.5 ± 0.2 kg/m3; mass density ([2]; 333.15 K): 829.8 ± 0.2 kg/m3
6 | CCCCCCC [heptane] + Cc1ccccc1 |  |  |  |  |  |  |  |  |  |  |  |  |  |  |  |  |  |  | mass density ([2]; 278.15 K): 696.3 ± 0.4 kg/m3; mass density ([2]; 283.15 K): 692.2 ± 0.4 kg/m3; surface tension liquid-gas ([2]; 287.81 K): 20.7 ± 0.26 mN/m; mass density ([2]; 288.15 K): 688 ± 0.4 kg/m3; mass density ([2]; 293.15 K): 683.8 ± 0.4 kg/m3; surface tension liquid-gas ([2]; 297.82 K): 19.63 ± 0.25 mN/m; mass density ([2]; 298.15 K): 679.5 ± 0.4 kg/m3; mass density ([2]; 303.15 K): 675.2 ± 0.4 kg/m3; surface tension liquid-gas ([2]; 307.86 K): 18.68 ± 0.24 mN/m; mass density ([2]; 308.15 K): 670.9 ± 0.4 kg/m3; mass density ([2]; 313.15 K): 666.5 ± 0.3 kg/m3; surface tension liquid-gas ([2]; 317.86 K): 17.76 ± 0.24 mN/m; mass density ([2]; 318.15 K): 662.1 ± 0.3 kg/m3; mass density ([2]; 323.15 K): 657.7 ± 0.3 kg/m3; surface tension liquid-gas ([2]; 327.88 K): 16.68 ± 0.23 mN/m; mass density ([2]; 328.15 K): 653.2 ± 0.3 kg/m3; mass density ([2]; 333.15 K): 648.7 ± 0.3 kg/m3
7 | CN1CCCC1=O [N-methylpyrrolidone] |  |  |  |  |  |  |  |  |  |  |  |  |  |  |  |  |  | 35.66 ± 0.36 | surface tension liquid-gas ([1]; 277.84 K): 42.61 ± 0.42 mN/m; surface tension liquid-gas ([1]; 287.8 K): 41.35 ± 0.41 mN/m; surface tension liquid-gas ([1]; 297.81 K): 40.25 ± 0.4 mN/m; surface tension liquid-gas ([1]; 307.85 K): 39.1 ± 0.39 mN/m; surface tension liquid-gas ([1]; 317.85 K): 37.91 ± 0.38 mN/m; surface tension liquid-gas ([1]; 327.89 K): 36.8 ± 0.37 mN/m
8 | C1CCCCC1 [cyclohexane] | 25.34 ± 0.28 | 24.2 ± 0.27 | 23.02 ± 0.26 | 21.84 ± 0.25 | 20.71 ± 0.24 |  |  |  |  |  |  |  |  |  |  |  |  |  | surface tension liquid-gas ([1]; 279.33 K): 26.37 ± 0.29 mN/m; surface tension liquid-gas ([1]; 282.82 K): 25.99 ± 0.29 mN/m; surface tension liquid-gas ([1]; 337.93 K): 19.57 ± 0.24 mN/m
